Results on eleven compounds are retold here after paper PMC8904075 (Journal of medicinal chemistry, 2021).

Usually EC50 stands for the concentration at which the effect is half-maximal. A low value points to an effect from little substance. As usually defined, the Tmax is the time from dosing to the highest level.

Series [1] is described as follows: Aqueous stability / parent compound release by quantitative HPLC. The note with it: for parent compound released: release of parent compound 4. In kind it is physicochemical.
The test system of series [2] is P. berghei-GFP. As to the kind of experiment: In vivo efficacy, modified Thompson test.
The subject of series [3] is P. falciparum clone W2/Indochina (chloroquine and pyrimethamine resistant). As to the kind of experiment: In vitro antimalarial activity, 3H-hypoxanthine incorporation, W2. In kind it is cell-based. Particulars: Table 2; means of at least two independent experiments.
The test system of series [4] is P. falciparum TM90-C2B/Thailand (chloroquine, mefloquine, pyrimethamine, and atovaquone resistant). As to the kind of experiment: In vitro antimalarial activity, 3H-hypoxanthine incorporation, TM90-C2B. Particulars: Table 2; means of at least two independent experiments. In kind it is cell-based.
Series [5] has as its system P. falciparum. Put plainly: In vitro antimalarial activity as summarised in text. The format is cell-based.
The format of series [6] is in vivo.
The subject of series [7] is P. berghei-infected mice. The note with it: antimalarials in clinical trials; cited from earlier work.

Values joined by “and” are separate entries in the source; they are usually repeats but may differ in a detail not shown here. Equal entries are not always repeated. Where only a bound is given, the exact number is not on record here.

Turning to `CNCCCOC(=O)OCOc1c(-c2ccc(C(F)(F)F)cc2)c(C)nc2cc(OC)c(Cl)cc12.Cl` [compound 28, 6-Chloro-7-methoxy-2-methyl-3-(4-(trifluoromethyl)phenyl)-4-(((3-(methylammonio)propyloxycarbonyl)oxy)methoxy)quinoline, chloride salt], in series [1] (in 5 h at pH 7.0), the parent compound released is over 55%. The “stability at low pH values” in series [1] (low pH values) is “stable”. The “Suppression [%] day 6 PI ± S.D.” value in series [2] (10 mg/kg PO once a day on days 3–5 PI, 0.5% aqueous HEC, mice) is given as 82 ± 0.6%. Further, the “extension of life span of treated animals relative to untreated controls” value in series [2] (10 and 50 mg/kg PO days 3–5 PI) is listed as “does not significantly extend”.
Turning to formaldehyde [compound 14], in series [3], the “W2 pEC50” value is “inactive”. The “C2B pEC50” value in series [4] is “inactive”. This compound also gave an EC50 in series [5] (release byproducts, devoid of antimalarial activity) of over 4 µM.
On to `COc1cc2[nH]c(C)c(-c3ccc(C(F)(F)F)cc3)c(=O)c2cc1Cl` [compound 4, 6-chloro-7-methoxy-2-methyl-3-(4-(trifluoromethyl)phenyl)-4(1H)-quinolone], for which the Tmax in series [6] (plasma, po, 50 mg/kg) worked out at 2 h. Also, the “maximum plasma concentration of 4” value in series [6] (single oral 50 mg/kg of 4, 0.5% aqueous HEC) amounted to 365 nM.
With `c1cc([C@H]2CC[C@]3(CC2)OOC2(O3)C3CC4CC(C3)CC2C4)ccc1OCCN1CCOCC1` (stereo partly shown) [OZ439], the “single oral (PO) curative dose, single exposure radical cure” value (“single oral (PO) curative dose” below) in series [7] was 20 mg/kg.
Consider `CNCCCOC(=O)OCOc1c(-c2ccc(Oc3ccc(OC(F)(F)F)cc3)cc2F)c(C)nc2cc(OC)c(Cl)cc12.Cl` [compound 30, 6-Chloro-7-methoxy-2-methyl-3-(2-fluoro-4-(4-(trifluoromethoxy)phenoxy)phenyl)-4-(((3-(methylammonio)propyloxycarbonyl)oxy)methoxy)quinoline, chloride salt], for which the “single oral dose producing cures” value in series [2] (P. berghei-infected mice, single dose, no advanced formulation) was 3 mg/kg. Further, the “average day of death” value in series [2] (single dose 1 mg/kg PO, all 5 mice) is over 13 days. The number of cures in series [2] (single dose 3 mg/kg PO on day 3 PI, 3 mg/kg) was 5 out of 5 and 5/5; in series [2] (single dose 10 mg/kg PO on day 3 PI, 10 mg/kg) it was 5 out of 5 and 5/5. Further, in series [6] (single oral administration, 0.5% aqueous HEC), the clearance entry is reported as “low clearance”.
Regarding `C[C@H]1Cc2c([nH]c3cc(Cl)c(F)cc23)[C@@]2(N1)C(=O)Nc1ccc(Cl)cc12` [KAE609], the “single oral (PO) curative dose” value in series [7] was 100 mg/kg.
As for `COc1cc2[nH]c(C)c(-c3ccc(Oc4ccc(OC(F)(F)F)cc4)cc3F)c(=O)c2cc1Cl` [compound 2, 6-chloro-3-(2-fluoro-4-(4-(trifluoromethoxy)phenoxy)phenyl)-7-methoxy-2-methyl-4(1H)-quinolone], the in vivo activity entry in series [2] (single dose of 10 mg/kg, 0.5% aqueous HEC) is “completely inactive”.
As to `CS(=O)(=O)c1ccc(-c2cnc(N)c(-c3ccc(C(F)(F)F)nc3)c2)cc1` [MMV390048], in series [7], the “single oral (PO) curative dose” value is 30 mg/kg.
For the compound `CNCCOC(=O)OCOc1c(-c2ccc(C(F)(F)F)cc2)c(C)nc2cc(OC)c(Cl)cc12.Cl` [compound 27, 6-Chloro-7-methoxy-2-methyl-3-(4-(trifluoromethyl)phenyl)-4-(((2-(methylammonio)ethoxycarbonyl)oxy)methoxy)quinoline, chloride salt], the results for the parent compound released in series [1] (in 1 h at pH 7.0) and in series [1] (in 10 h at pH 4.0) were over 90% and over 25%, respectively.
Turning to `CCOC(=O)Oc1c(-c2ccccc2C)c(C)nc2cc(OC)c(Cl)cc12` [compound 11, 6-Chloro-7-methoxy-2-methyl-3-(o-tolyl)-4-((ethoxycarbonyl)oxy)quinoline], the “fold less potent than reference compound 3” value in series [5] (in vitro antimalarial activity, Table 1) worked out at 10 fold.
Regarding `CN1CCCOC1=O` [compound 13, 3-Methyl-1,3-oxazinan-2-one], the EC50 in series [5] (Plasmodium falciparum) was over 4 µM.
